What all share (type): biochemical
For assay [1], the target named is T1, tissue kallikrein KLK13 (Homo sapiens, UniProt Q9UKR3).
T1 construct: purchased R&D Systems
T1 sequence (Q9UKR3 17-277): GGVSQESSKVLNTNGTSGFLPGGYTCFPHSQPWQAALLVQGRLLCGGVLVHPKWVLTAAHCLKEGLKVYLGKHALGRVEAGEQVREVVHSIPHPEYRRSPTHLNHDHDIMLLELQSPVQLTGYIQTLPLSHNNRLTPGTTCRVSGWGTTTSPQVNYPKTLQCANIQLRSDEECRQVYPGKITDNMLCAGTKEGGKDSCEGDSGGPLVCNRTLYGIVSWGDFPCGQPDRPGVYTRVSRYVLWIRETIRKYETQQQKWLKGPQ
Nature of the assay: Inhibitor specificity IC50 assay, KLK13 (Boc-Val-Pro-Arg-AMC). The note with it: substrate Boc-Val-Pro-Arg-AMC. The protocol: (§1) Activated human plasma kallikrein (Enzyme Research Laboratories, HPKa 1303) was reacted with H-Pro-Phe-Arg-7-amido-4-methylcoumarin (H-Pro-Pre-Arg-AMC) (a fluorogenic substrate for plasma as well as pancreatic and urinary kallikreins; Bachem I-1295) and candidate inhibitory peptides to determine the IC50 of the inhibitor.
(§2) Ten 8-fold serial dilutions of peptides (10 mM DMSO stocks) were performed in DMSO and then added to TCNB (50 mM Tris-HCl pH 7.2, 150 mM NaCl, 10 mM CaCl2, 0.05% Brij-35) and sonicated. 50 μL of the peptide dilutions were added to microtitre plates (96 well, black non-binding surface, Corning, 3650) and incubated for 5 minutes at room temperature with 4 nM activated human kallikrein (final concentration after addition of fluorogenic substrate: 1 nM). The samples were then incubated for 1 hour at room temperature with 2 mM H-Pro-Phe-Arg-AMC (final concentration 500 μM). Relative Fluorescence Units (RFU) were measured at excitation/emission 360 nm/460 nm by a SpectraMax M3.
(§3) To determine the specificity of peptide inhibitors, an IC50 assay, as described in Example 4, was performed on a variety of serine proteases related to human plasma kallikrein. The enzymes tested include mouse plasma kallikrein (R&D Systems, Minneapolis, Minn.), and the human enzymes Factor VIIa (Enzyme Research Laboratories, South Bend, Ind.), Factor Xa (Enzyme Research Laboratories, South Bend, Ind.), Factor XIa (Enzyme Research Laboratories, South Bend, Ind.), Factor XIIa (Enzyme Research Laboratories, South Bend, Ind.), tissue kallikrein KLK13 (R&D Systems, Minneapolis, Minn.), thrombin (Enzyme Research Laboratories, South Bend, Ind.) and plasmin (Enzyme Research Laboratories, South Bend, Ind.).
(§4) Each enzyme was tested with the following specific fluorgenic substrates (available from Bachem; Torrance, Calif.): mouse plasma kallikrein (Pro-Phe-Arg-AMC), Factor VIIa (Boc-Val-Pro-Arg-AMC), Factor Xa (Boc-Gln-Gly-Arg-AMC), Factor XIa (Boc-Gln-Gly-Arg-AMC), Factor XIIa (Boc-Gln-Gly-Arg-AMC), KLK13 (Boc-Val-Pro-Arg-AMC), thrombin (Boc-Val-Pro-Arg-AMC) and plasmin (Boc-Val-Leu-Lys-AMC). Peptide inhibitors R2006, R2010, R2012, R2019, R2023, R2030, R2036, R2041, R2047, R2104 and R2051 were assayed.

In assay [2] the target is T2, Factor Xa (Homo sapiens, UniProt P00742).
T2 construct: Factor Xa (Enzyme Research Laboratories, South Bend, Ind.); purchased Enzyme Research Laboratories
Description: Inhibitor specificity IC50 assay, Factor Xa (Boc-Gln-Gly-Arg-AMC). The note with it: substrate Boc-Gln-Gly-Arg-AMC. The protocol: as §1, §2, §3, §4

The target in assay [3] is T3, Factor VIIa (Homo sapiens, UniProt P08709).
T3 construct: Factor VIIa (Enzyme Research Laboratories, South Bend, Ind.); purchased Enzyme Research Laboratories
T3 sequence (P08709 61-212 limits assumed): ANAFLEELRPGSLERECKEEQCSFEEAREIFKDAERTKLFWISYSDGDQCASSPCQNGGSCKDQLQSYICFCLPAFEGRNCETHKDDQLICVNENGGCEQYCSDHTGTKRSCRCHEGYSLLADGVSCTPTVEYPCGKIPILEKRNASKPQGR
T3 sequence (P08709 213-466 limits assumed): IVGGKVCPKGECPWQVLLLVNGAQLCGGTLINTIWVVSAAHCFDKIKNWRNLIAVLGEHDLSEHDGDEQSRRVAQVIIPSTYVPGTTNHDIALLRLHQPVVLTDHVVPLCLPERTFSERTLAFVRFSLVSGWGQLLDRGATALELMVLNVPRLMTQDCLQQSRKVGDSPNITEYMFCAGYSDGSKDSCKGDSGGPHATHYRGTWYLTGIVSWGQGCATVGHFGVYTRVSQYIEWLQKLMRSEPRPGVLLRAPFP
Description: Inhibitor specificity IC50 assay, Factor VIIa (Boc-Val-Pro-Arg-AMC). Particulars: substrate Boc-Val-Pro-Arg-AMC. The protocol:
as §2, §3, §4

In assay [4] the target is T4, human plasma kallikrein (Homo sapiens, UniProt P03952).
T4 construct: purchased Enzyme Research Laboratories HPKa 1303
Description: Enzyme inhibition assay (fluorogenic substrate H-Pro-Phe-Arg-AMC). The note with it: Kallikrein inhibitory activity; 1 nM activated human kallikrein, 500 μM H-Pro-Phe-Arg-AMC, 1 hour room temperature; read-out: Avg. IC50. Put shortly: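 Activated enzyme (1 nM final) was preincubated 5 min at room temperature with peptides in 10-point 8-fold dilutions. The buffer was 50 mM Tris-HCl pH 7.2, 150 mM NaCl, 10 mM CaCl2, 0.05% Brij-35. After 1 h at room temperature with 500 μM substrate (final), fluorescence was read at 360/460 nm to derive IC50.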

The target of assay [5] is T5, Factor XIa (Homo sapiens, UniProt P03951).
T5 construct: Factor XIa (Enzyme Research Laboratories, South Bend, Ind.); purchased Enzyme Research Laboratories
Description: Inhibitor specificity IC50 assay, Factor XIa (Boc-Gln-Gly-Arg-AMC). Particulars: substrate Boc-Gln-Gly-Arg-AMC. The procedure:
as §1, §2, §3, §4

In assay [6] the target is T6, thrombin (Homo sapiens, UniProt P00734).
T6 construct: thrombin (Enzyme Research Laboratories, South Bend, Ind.); purchased Enzyme Research Laboratories
Nature of the assay: Inhibitor specificity IC50 assay, thrombin (Boc-Val-Pro-Arg-AMC). Particulars: substrate Boc-Val-Pro-Arg-AMC. The procedure:
as §1, §2, §3, §4

The target in assay [7] is T7, plasmin (Homo sapiens, UniProt P00747).
T7 construct: plasmin (Enzyme Research Laboratories, South Bend, Ind.); purchased Enzyme Research Laboratories
Nature of the assay: Inhibitor specificity IC50 assay, plasmin (Boc-Val-Leu-Lys-AMC). Particulars: substrate Boc-Val-Leu-Lys-AMC. The protocol:
as §1, §2, §3, §4

Assay [8] has as its target T8, Factor XIIa (Homo sapiens, UniProt P00748).
T8 construct: Factor XIIa (Enzyme Research Laboratories, South Bend, Ind.); purchased Enzyme Research Laboratories
T8 sequence (P00748 373-615 limits assumed): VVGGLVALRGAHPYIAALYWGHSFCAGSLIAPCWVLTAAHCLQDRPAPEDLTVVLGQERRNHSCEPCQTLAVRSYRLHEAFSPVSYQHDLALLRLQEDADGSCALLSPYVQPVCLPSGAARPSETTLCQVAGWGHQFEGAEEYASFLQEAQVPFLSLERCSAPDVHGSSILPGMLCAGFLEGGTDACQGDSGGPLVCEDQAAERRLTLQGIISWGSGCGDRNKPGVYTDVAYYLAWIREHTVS
Description: Inhibitor specificity IC50 assay, Factor XIIa (Boc-Gln-Gly-Arg-AMC). The note with it: substrate Boc-Gln-Gly-Arg-AMC. The protocol: as §1, §2, §3, §4

Numbered stars: 1 amine (or outer) side, 2 acyl side, 3 side chain; on linkers, the order of the positions; unused ones are H or OH. Bridge positions count the residues as written; N and C are the ends. Square brackets hold non-standard residues; d marks the D form. Peptide text beside a SMILES is read from it. * marks the point of attachment. mXylylene = c1cc(C[*:1])cc(C[*:2])c1; Tle = CC(C)(C)[C@H](N)C(=O)O; Heptanoyl = CCCCCCC(=O)*; Mpa = O=C(O)CCS

T2 sequence (P00742 41-179 limits assumed): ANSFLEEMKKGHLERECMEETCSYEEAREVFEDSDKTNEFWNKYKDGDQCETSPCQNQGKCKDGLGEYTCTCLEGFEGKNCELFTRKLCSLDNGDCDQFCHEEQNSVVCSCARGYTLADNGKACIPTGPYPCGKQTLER
T2 sequence (P00742 235-488 limits assumed): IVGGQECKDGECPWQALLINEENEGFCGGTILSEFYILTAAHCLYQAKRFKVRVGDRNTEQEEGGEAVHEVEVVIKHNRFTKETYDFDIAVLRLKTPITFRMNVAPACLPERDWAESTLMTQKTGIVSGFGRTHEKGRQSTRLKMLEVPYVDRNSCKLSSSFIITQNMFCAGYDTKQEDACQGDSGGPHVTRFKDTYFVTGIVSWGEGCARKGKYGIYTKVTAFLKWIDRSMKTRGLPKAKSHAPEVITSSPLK
T4 sequence (P03952 20-390 limits assumed): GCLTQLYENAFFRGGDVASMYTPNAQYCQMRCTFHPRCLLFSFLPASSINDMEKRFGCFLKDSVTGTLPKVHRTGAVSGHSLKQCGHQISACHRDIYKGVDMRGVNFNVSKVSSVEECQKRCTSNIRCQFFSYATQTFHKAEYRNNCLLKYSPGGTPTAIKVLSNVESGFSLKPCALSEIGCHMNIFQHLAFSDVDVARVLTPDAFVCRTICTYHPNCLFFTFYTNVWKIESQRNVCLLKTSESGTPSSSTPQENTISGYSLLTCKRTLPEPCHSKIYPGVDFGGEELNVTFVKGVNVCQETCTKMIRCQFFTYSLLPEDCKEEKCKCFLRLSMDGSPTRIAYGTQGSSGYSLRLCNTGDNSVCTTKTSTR
T4 sequence (P03952 391-638 limits assumed): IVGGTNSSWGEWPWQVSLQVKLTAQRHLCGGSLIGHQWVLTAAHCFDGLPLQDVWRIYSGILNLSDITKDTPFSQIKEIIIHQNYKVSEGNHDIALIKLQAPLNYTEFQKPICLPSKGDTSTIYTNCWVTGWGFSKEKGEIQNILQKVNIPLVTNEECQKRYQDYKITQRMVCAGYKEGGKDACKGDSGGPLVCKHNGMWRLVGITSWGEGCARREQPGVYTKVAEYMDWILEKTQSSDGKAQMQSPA
T7 sequence (P00747 97-580 limits assumed): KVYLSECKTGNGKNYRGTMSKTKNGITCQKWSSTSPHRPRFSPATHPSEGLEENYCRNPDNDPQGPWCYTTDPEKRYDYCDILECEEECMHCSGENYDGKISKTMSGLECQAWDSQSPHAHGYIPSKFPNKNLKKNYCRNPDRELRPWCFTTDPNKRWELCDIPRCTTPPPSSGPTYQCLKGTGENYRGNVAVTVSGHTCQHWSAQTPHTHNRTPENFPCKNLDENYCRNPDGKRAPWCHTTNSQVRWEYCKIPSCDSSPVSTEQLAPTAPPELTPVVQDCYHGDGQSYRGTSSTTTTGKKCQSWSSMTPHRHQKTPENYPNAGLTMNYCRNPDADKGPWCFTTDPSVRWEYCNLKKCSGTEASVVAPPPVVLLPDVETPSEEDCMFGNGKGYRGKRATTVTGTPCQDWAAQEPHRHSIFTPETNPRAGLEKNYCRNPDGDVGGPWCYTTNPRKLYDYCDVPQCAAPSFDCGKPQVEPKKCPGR
T7 sequence (P00747 581-810 limits assumed): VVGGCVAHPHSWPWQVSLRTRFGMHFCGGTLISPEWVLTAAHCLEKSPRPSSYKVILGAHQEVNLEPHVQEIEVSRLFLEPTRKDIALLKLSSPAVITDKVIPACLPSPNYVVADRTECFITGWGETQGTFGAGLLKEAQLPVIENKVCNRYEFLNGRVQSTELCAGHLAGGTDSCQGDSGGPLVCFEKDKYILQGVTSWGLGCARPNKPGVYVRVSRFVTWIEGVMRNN
T5 sequence (P03951 19-387 limits assumed): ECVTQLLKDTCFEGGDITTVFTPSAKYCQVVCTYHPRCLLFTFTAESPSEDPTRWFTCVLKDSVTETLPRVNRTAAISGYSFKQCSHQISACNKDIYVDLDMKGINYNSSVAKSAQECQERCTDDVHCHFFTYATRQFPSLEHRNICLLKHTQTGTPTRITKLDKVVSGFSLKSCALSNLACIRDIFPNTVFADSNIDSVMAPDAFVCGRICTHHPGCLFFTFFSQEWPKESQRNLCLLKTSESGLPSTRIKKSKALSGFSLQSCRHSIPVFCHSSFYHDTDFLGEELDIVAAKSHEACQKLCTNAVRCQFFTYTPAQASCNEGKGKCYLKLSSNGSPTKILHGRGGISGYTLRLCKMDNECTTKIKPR
T5 sequence (P03951 388-625 limits assumed): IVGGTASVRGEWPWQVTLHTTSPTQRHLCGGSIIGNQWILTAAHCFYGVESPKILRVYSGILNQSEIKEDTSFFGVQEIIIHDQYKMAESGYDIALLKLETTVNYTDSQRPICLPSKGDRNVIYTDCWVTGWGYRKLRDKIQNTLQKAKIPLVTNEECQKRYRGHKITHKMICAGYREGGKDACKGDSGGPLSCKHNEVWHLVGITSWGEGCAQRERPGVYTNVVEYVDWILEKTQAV

For `CC[C@H](C)[C@@H]1NC(=O)[C@H](CO)NC(=O)[C@H](CCC(=O)O)NC(=O)CCSCc2cccc(c2)CSC[C@@H](C(=O)N[C@@H](CCCNC(=N)N)C(=O)N[C@H](C(N)=O)C(C)C)NC1=O` [Compound R2051, [mXylyl(1,5)](des-NH2)C-ESICRV-NH2] ([Mpa]ESICRV-NH2; linker 1-5 via mXylylene), the IC50 (in general, the midpoint of a concentration-inhibition curve) in assay [1] is above 100 µM; in assay [2], above 100 µM; in assay [3], above 100 µM; in assay [4], 0.0129 µM; in assay [5], above 8.3 µM; in assay [6], above 100 µM. The IC50 in assay [7] and in assay [8] was above 100 µM each time.

For the molecule `CCCCCCC(=O)N[C@H]1CSCc2cccc(c2)CSC[C@@H](C(=O)N[C@@H](CCCNC(=N)N)C(=O)N[C@H](C(N)=O)C(C)C)NC(=O)[C@H]([C@@H](C)CC)NC(=O)[C@H](CO)NC(=O)[C@H](CCC(=O)O)NC1=O` [Compound R2041, [mXylyl(1,5)]Heptanoyl-CESICRV-NH2] (Heptanoyl-CESICRV-NH2; linker 1-5 via mXylylene), the IC50 was above 100 µM in assay [1]; above 7 µM in assay [2]; above 17.9 µM in assay [3]; 0.0242 µM in assay [4]; above 5.4 µM in assay [5]; above 100 µM in assay [6]. Moreover, the IC50 in assay [7] and in assay [8] was above 100 µM in each case.

Consider `CC[C@H](C)[C@@H]1NC(=O)[C@H](CO)NC(=O)[C@H](CCC(=O)O)NC(=O)[C@@H](NC(=O)[C@@H](N)CCSC)CSCc2cccc(c2)CSC[C@@H](C(=O)N[C@@H](CCCNC(=N)N)C(=O)N[C@H](C(N)=O)C(C)(C)C)NC1=O` [Compound R2010, [mXylyl(2,6)]MCESICR-Tbg-NH2] (H-MCESICR[Tle]-NH2; linker 2-6 via mXylylene; N-terminus assumed), for which the half-inhibitory concentration (IC50) in assay [1] was above 100 µM; in assay [2], above 100 µM; in assay [3], above 100 µM; in assay [4], 0.0099 µM; in assay [5] it was above 15 µM; in assay [6], above 100 µM. The IC50 in assay [7] and in assay [8] was above 100 µM each time.

These data come from US9999650B2, “Peptide and peptidomimetic inhibitors” (Ra Pharmaceuticals, Inc., priority 2012, dated 2018).
